Measurements: patent US20170119630A1, “BIPHASIC COMPOSITION FOR PERFUME AND PERSONAL CARE APPLICATIONS AND USES THEREOF” (Coty Inc., priority 2014, published 2017)

Legend:
[1] = Single fragrance migration study in biphasic compositions, GC/MS analysis; format: physicochemical; conditions: for Result in % based on GC/MS analysis, Regular EDT aromatics %: Regular EDT with Fragrance oil Giddy 11598/00; for migration between phases when the amount of water is increased: water ~7.4 wt % to ~27.25 wt %, FIG. 1, GC/MS
From the text: FIG. 1 has been obtained using GC/MS analytical tool. Depending primary on the log P of fragrances and/or secondary of the chemical families/functions of those fragrances, modification of the polarity will have the effect of pushing the fragrance in one preferred phase of the biphasic composition.
To determine the distribution of first fragrance and second fragrance in the biphasic composition three formulations (regular EDT, biphasic composition with low amount of water in the water-alcohol phase, biphasic composition with high amount of water in the water-alcohol phase) were tested and compared using GC/MS analysis and Expert evaluator.

[2] = colorant; cited from earlier work
[3] = Bi phase formula high amount of water in the bottom phase (total water ~27.24%)
[4] = Bi phase formula low amount of water in the bottom phase (total water ~7.4%)

Structure (SMILES)	Result in % based on GC/MS analysis, Lower phase aromatics % [1, 3] [%]	Result in % based on GC/MS analysis, Upper phase aromatics % [1, 3] [%]	Result in % based on GC/MS analysis, Lower phase aromatics % [1, 4] [%]	Result in % based on GC/MS analysis, Upper phase aromatics % [1, 4] [%]	Result in % based on GC/MS analysis, Regular EDT aromatics % [1] [%]	migration between phases when the amount of water is increased [1]	solubility (oil-soluble / water-soluble) [2]
C=CC(C)(CCC=C(C)C)OC(C)=O (stereo not shown) [linalyl acetate]	1.63	3.89	3.52	3.38	3.37	–	–
CC(C=O)Cc1ccc2c(c1)OCO2 (stereo not shown) [helional]	4.10	0.91	2.03	0.40	1.32	–	–
CC1COCc2cc3c(cc21)C(C)(C)C(C)C3(C)C (stereo not drawn) [galaxolide (main peak), galaxolide]	1.64	22.92	15.47	26.53	20.25	migrating in the oily phase	–
C=CC(C)(O)CCC=C(C)CC (mixture of isomers) [ethyl linalol]	28.40	0.83	6.86	1.11	4.39	stays in the hydro-alcoholic phase	–
O=C(O)c1nn(-c2ccc(S(=O)(=O)O)cc2)c(O)c1N=Nc1ccc(S(=O)(=O)O)cc1 [FD&C Yellow No. 5]	–	–	–	–	–	–	water-soluble
CC(C)CC1CC(C)(O)CCO1 (stereo not shown) [florosa]	5.86	3.93	5.12	1.86	3.82	–	–
CCCCCCC(C=O)=Cc1ccccc1 [hexylcinnamic aid, hexylcinnamic aldehyde]	0.46	1.67	1.65	1.43	1.54	migrating in the oily phase	–
CC(C=O)Cc1ccc(C(C)(C)C)cc1 (stereo not shown) [lilial]	2.43	4.18	4.90	2.70	3.92	–	–
CC(CC=O)CCCC(C)(C)O (stereo not shown) [hydroxycitronelial]	4.13	0.12	0.88	0.06	0.53	–	–
CCCCCCCCCCCCCC(=O)OC(C)C [Isopropyl Myristate IPM, Isopropyl Myristate]	0.00	13.93	4.96	23.40	13.34	migrate following the same rules in the oil phase	–
CC(=O)OC1CCCCC1C(C)(C)C (single isomer, unassigned) [agrumex major isomer, agrumex]	0.16	0.47	0.40	0.45	0.41	–	–
O=C1c2ccccc2C(=O)C1c1ccc2ccccc2n1 [D&C Yellow No. 11]	–	–	–	–	–	–	oil-soluble
CCCCCC1C(=O)CCC1CC(=O)OC (stereo not drawn) [hedione trans, hedione]	26.10	11.94	18.40	6.64	13.28	–	–
